According to patent US20130023535A1, “METHOD OF PREVENTING AND/OR TREATING DIABETIC NEUROPATHY” (Astellas Pharma Inc., priority 2007, published 2013):
Read-outs that look alike come from different tables or passages of the source.

Assays:
[1] = test system: STZ (streptozotocin)-induced diabetic rats; conditions: vs vehicle group
Procedure: STZ (streptozotocin)-induced diabetic rats were prepared according to the following procedure. STZ (45 mg/kg) was intravenously administered to rats at the age of 7 weeks. At week 2 after administration of STZ, the blood was collected from the tail vein and the blood glucose level was measured to confirm that the blood glucose level was increased to 300 mg/dl or more. In the administration group, the rats were grouped so as to minimize the variation in the mean values of body weight, blood glucose level and pain response threshold measured on the previous day of the administration of the drug. A non-administration group of STZ was separately prepared and used as Normal group. A test drug was orally administered once daily for 28 consecutive days. Paresthesia due to neuropathy was determined by a von Frey Test (pain threshold test) at two time points, at 1 hour after administration on day 28 and on day 7 of cessation of the drug after the last administration (Pain, vol. 53, pp. 81-88, 1993). The test was initiated after the rats were placed in a cage for observation and acclimated for at least 20 minutes. By using a digital von Frey Test model 2390 (manufactured by IITC Inc.), a tip end was lightly applied to a paw. When there was no response, an applied load was increased from 1 to 3 g. The pain threshold was determined as an applied load (g) at which an avoidance response such as paw withdrawal was observed. In each animal, the measurement was performed twice for each of the left and right paws, and the mean of the 4 values was calculated as a withdrawal threshold (g). The improvement of paresthesia was determined based on the recovery of the withdrawal threshold in a drug administration group as compared with a vehicle (distilled water) administration group. Statistical test was performed between the vehicle administration group and the drug administration groups. For confirming the onset of diabetic neuropathy, a Student's t-test was also performed to compare the vehicle administration group and the Normal group.

[2] = test system: fibroblast growth factor 2 (FGF-2); experiment: Quantitative PCR of neurotrophic factor expression, spinal cord lumbar region of STZ-induced diabetic rats; type: in vivo, rat; conditions: 30 mg/kg
Procedure: (§1) In order to verify whether (+)-2-[(1H-inden-7-yloxy)methyl]morpholine hydrochloride acts on the expression levels of neurotrophic factors, an improving effect of (+)-2-[(inden-7-yloxy)methyl]morpholine hydrochloride on a decrease in the expression levels of neurotrophic factors in the spinal cord and the dorsal root ganglia of STZ-induced diabetic rats was examined.
(§2) The expression levels of neurotrophic factors were measured in the animals on day 7 to 8 of cessation of the drug withdrawal after the repeated daily administration in each of the Normal group, the vehicle administration group (STZ-induced diabetic rats) and the drug administration group at a dose of 30 mg/kg (STZ-induced diabetic rats) in Example 2. The spinal cord lumbar region and the dorsal root ganglia (L4, L5, and L6) were excised and the total RNA was extracted from the excised specimens using an RNA extraction kit RNeasy (Qiagen). […] A quantitative PCR analysis was performed for the obtained cDNA using primers to fibroblast growth factor 2 (FGF-2), insulin-like growth factor 1 (IGF-1), and glyceraldehyde-3-phosphate dehydrogenase (G3PDH) by PRISM 7900 (ABI). […] The improving effect on a decrease in the expression levels of neurotrophic factors were determined based on the recovery on the expression levels of neurotrophic factors in the drug administration group as compared with the vehicle administration group. […]

Cytochrome P-450 (1A2) = target: T1, Cytochrome P-450 (1A2) (Homo sapiens, UniProt P05177); experiment: Test for Cytochrome P-450 (1A2) enzyme inhibition using human liver microsomes; type: in vitro ADME
T1 construct: 0.2 mg protein/mL human liver microsomes; from tissue; host or cells: human liver microsomes
T1 sequence (P05177 1-516): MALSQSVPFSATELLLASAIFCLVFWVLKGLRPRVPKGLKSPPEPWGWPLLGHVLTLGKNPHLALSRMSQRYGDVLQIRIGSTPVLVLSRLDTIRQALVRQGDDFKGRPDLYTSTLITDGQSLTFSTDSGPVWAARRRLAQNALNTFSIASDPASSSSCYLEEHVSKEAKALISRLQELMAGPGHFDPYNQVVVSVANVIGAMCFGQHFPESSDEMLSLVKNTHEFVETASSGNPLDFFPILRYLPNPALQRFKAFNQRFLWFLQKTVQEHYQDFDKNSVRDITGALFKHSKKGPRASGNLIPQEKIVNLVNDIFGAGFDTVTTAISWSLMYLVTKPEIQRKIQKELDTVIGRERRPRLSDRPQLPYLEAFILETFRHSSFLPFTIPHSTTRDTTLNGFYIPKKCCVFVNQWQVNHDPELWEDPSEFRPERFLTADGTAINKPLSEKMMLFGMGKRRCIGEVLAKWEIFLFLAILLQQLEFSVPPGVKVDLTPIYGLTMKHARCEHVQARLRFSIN
Procedure: An experiment was performed according to the method of Rae Yuan et al. (Drug Metabolism and Disposition, 30(12), 1311-1319, 2002).
By using a 96-well plate, a test drug (0.3 to 10 μmol/L) was added to 100 mmol/L Na-K phosphate buffer (pH=7.4) containing 0.1 mmol/L ethylenediaminetetraacetic acid (EDTA), 1 mmol/L nicotinamide adenine dinucleotide phosphate (NADPH), and 0.2 mg protein/mL human liver microsomes, and the total volume was made up to 145 μL, and then, preincubation of the resulting mixture was started at 37° C. At 5 minutes after the start of preincubation, phenacetin (20 mmol/L) was added thereto as a substrate for P450(1A2), and the total volume was made up to 150 μL, and then, the resulting mixture was incubated at 37° C. for 20 minutes. Thereafter, 130 μL of acetonitrile was added to the sample to stop the reaction. For the sample in which the reaction was stopped, the concentration of acetaminophen which is a metabolite of phenacetin was determined using LC/MS/MS.
A production amount of acetaminophen in the absence of the test drug was taken as 100%, and a production amount of acetaminophen in the presence of the test drug was calculated for each concentration of the test drug. Based on the calculated production amount for each concentration of the test drug, a concentration of the test drug at which the production amount of acetaminophen was 50% (IC50 value) was calculated from the following equation. The test was performed for two cases, and a mean value was used for the calculation of each value.
Production amount [I] (%)=100/(1+[I]/IC50)
Production amount [I] (%): (Production amount of acetaminophen when the test compound concentration was [I])/(Production amount of acetaminophen in the absence of test compound)×100

[3] = test system: insulin-like growth factor 1 (IGF-1); experiment: Quantitative PCR of neurotrophic factor expression, dorsal root ganglia of STZ-induced diabetic rats; type: in vivo, rat; conditions: 30 mg/kg
Procedure: as §1, §2

[4] = test system: STZ-induced diabetic rats; experiment: Motor nerve conduction velocity (MNCV) in STZ-induced diabetic rats; type: in vivo, rat; conditions: 30 mg/kg
Procedure: The measurement was performed using the method of Cameron et al. (The Journal of Experimental Physiology, vol. 74, pp. 917-926, 1989) with some modification.
1 were used. Further, the same test was performed also for the Normal group. The rats were anesthetized with sodium pentobarbital, and the temperature of the rectum was maintained at about 37.5° C. using a body temperature maintenance device for small animals, and then, the MNCV was measured using an evoked potential measurement device. First, a positive stimulating electrode was attached to a dorsal region. […] Then, an average waveform evoked by the stimulation was derived from bipolar recording electrodes inserted into a gastrocnemius muscle region of the hind limb of the same side, and the latency (sec) from the start of stimulation to the first deflection of an M-wave was measured. Thereafter, the tibial nerve around behind the knee was stimulated with a negative stimulating electrode in the same manner as above, and the latency (sec) was measured in the same manner as in the gastrocnemius muscle region. A value obtained by dividing a distance (m) between the two regions stimulated with the negative stimulating electrode by a difference (sec) in the M-wave latency measured in the above two stimulation experiments was determined to be an MNCV value. […]

[5] = 30 mg/kg orally once daily for 28 days, measured on day 7 of cessation of drug
[6] = 30 mg/kg orally once daily, day 28 of repeated administration, 1 hour after administration

| CYP inhibitory activity (Cytochrome P-450 (1A2)) | possibility of drug-drug interaction by oral administration (Cytochrome P-450 (1A2); from difference between IC50 and Cmax at oral administration) | IC50 (Cytochrome P-450 (1A2); human liver microsomes, substrate phenacetin, acetaminophen production, mean of two cases) | Compound | effect on the decrease in the withdrawal threshold (von Frey test) [1, 5] | effect on the decrease in the withdrawal threshold (von Frey test) [1, 6] | effect on the decrease in the expression level of FGF-2 [2] | relative gene expression level of FGF-2 normalized by G3PDH ([2]; p.o., day 7 to 8 of cessation, mean ± SEM, Normal 100.0, Vehicle 66.9) | effect on the decrease in the expression level of IGF-1 [3] | relative gene expression level of IGF-1 normalized by G3PDH ([3]; p.o., day 7 to 8 of cessation, mean ± SEM, Normal 100.0, Vehicle 54.6) | MNCV ([4]; p.o., day 7 to 8 of drug withdrawal after repeated daily administration, mean ± SEM, Normal 62.4, Vehicle 49.4) | improving effect on a decrease in MNCV ([4]; vs vehicle group) |
| --- | --- | --- | --- | --- | --- | --- | --- | --- | --- | --- | --- |
|  |  |  | C1=Cc2cccc(OCC3CNCCO3)c2C1.Cl (racemic) [(±)-2-[(inden-7-yloxy)methyl]morpholine hydrochloride] | significantly restored the decrease in the withdrawal threshold | significantly restored the decrease in the withdrawal threshold |  |  |  |  |  |  |
| extremely weak | extremely low | 8.1 µM | C1=Cc2cccc(OCC3CNCCO3)c2C1.Cl (single isomer, unassigned; (+)) [(+)IDX, (+)-2-[(1H-inden-7-yloxy)methyl]morpholine hydrochloride] | significantly restored the decrease in the withdrawal threshold | significantly restored the decrease in the withdrawal threshold | significantly recovers the decrease in the expression levels | 103.5 ± 4.9 | significantly recovers the decrease in the expression levels | 67.7 ± 3.2 | 53.3 ± 1.1 m/s | significant improving effect |
